Results published in ChEMBL document CHEMBL1122587 (J Med Chem, 1984).
Numbered stars: 1 amine (or outer) side, 2 acyl side, 3 side chain; on linkers, the order of the positions; unused ones are H or OH. Bridge positions count the residues as written; N and C are the ends. Square brackets hold non-standard residues; d marks the D form. Peptide text beside a SMILES is read from it. I, II: the chains in the order shown. Actinocin(9to1) = Cc1c2oc3c(C)ccc(C(=O)[*:1])c3nc-2c(C(=O)[*:2])c(N)c1=O; NMeV = CN[C@H](C(=O)O)C(C)C; Sar = CNCC(=O)O

How the values were obtained:
Assay type in all cases: physicochemical
[1] = Partition coefficient (logP); conditions: octanol/water
[2] = log P value was reported at a pH 2.0; conditions: buffer
[3] = Partition coefficient (logD) (0.1 N NaOH)

Row | Molecule | logP ([1]; read-out: logP) | also measured
1 | COc1cccc2c1C(=O)c1c(O)c3c(c(O)c1C2=O)C[C@@](O)(C(C)=O)C[C@@H]3O[C@H]1C[C@H](N)[C@H](O)[C@H](C)O1 [DAUNORUBICIN] | 0.66 | –
2 | COc1cccc2c1C(=O)c1c(O)c3c(c(O)c1C2=O)C[C@@](O)(C(=O)CO)C[C@@H]3O[C@H]1C[C@H](N)[C@H](O)[C@H](C)O1 [DOXORUBICIN] | 0.1 | –
3 | CN(Cc1cnc2nc(N)nc(N)c2n1)c1ccc(C(=O)N[C@@H](CCC(=O)O)C(=O)O)cc1 [METHOTREXATE] | – | logD [2]: -2.59
4 | CO[C@@]12[C@H](COC(N)=O)C3=C(C(=O)C(C)=C(N)C3=O)N1C[C@@H]1N[C@@H]12 [MITOMYCIN] | – | logP [1]: -0.47
5 | COc1ccc(OC)c(Cc2cnc3nc(N)nc(N)c3c2C)c1 [PIRITREXIM] | – | logD ([3]; 0.1 N NaOH, read-out: logD): 2.13
6 | COc1ccc(C[C@H](N)C(=O)N[C@H]2[C@@H](O)[C@H](n3cnc4c(N(C)C)ncnc43)O[C@@H]2CO)cc1 [PUROMYCIN] | 0.03 | –
7 | COCCOc1c(OC)cc(Cc2cnc(N)nc2N)cc1OC [TETROXOPRIM] | – | logD ([3]; octanol/water): 0.6
8 | CISPLATIN | – | logP [1]: -1.45

The next lines start with results.

Row | logP ([1]; read-out: logP) | Molecule | also measured
9 | 3.21 | Cc1c2oc3c(C)ccc(C(=O)N[C@@H]4C(=O)N[C@H](C(C)C)C(=O)N5CCC[C@H]5C(=O)N(C)CC(=O)N(C)[C@@H](C(C)C)C(=O)O[C@@H]4C)c3nc-2c(C(=O)N[C@@H]2C(=O)N[C@H](C(C)C)C(=O)N3CCC[C@H]3C(=O)N(C)CC(=O)N(C)[C@@H](C(C)C)C(=O)O[C@@H]2C)c(N)c1=O [DACTINOMYCIN] (I: T[dV]P[Sar][NMeV] / II: T[dV]P[Sar][NMeV]; ester I:1-I:C, II:1-II:C; linker I:N-II:N via Actinocin(9to1)) | –
10 | -1.8 | NC(=O)NO [HYDROXYUREA] | –
